Values quoted from earlier work as cited in paper PMC7395068, “The evolution of strategies to minimise the risk of human drug-induced liver injury (DILI) in drug discovery and development” (Archives of Toxicology, 2020).
Like-named read-outs stand apart in the source and are kept apart here.

What was measured:
[1] = cited from earlier work
[2] = cited from earlier work; remark: listed apart in the source
[3] = assignment in O'Brien 2006, ref O'Brien 2006
[4] = LTKB DILIrank category, ref Chen 2016
[5] = binary DILI call, ref Chen 2016
[6] = binary in vivo human DILI call, ref Chen 2016
[7] = human DILI, LTKB DILIrank category, ref Chen 2016

CCCCSCCC(N)C(=O)O (centres unmarked) [buthionine]
In vivo DILI [1, 3]: +VE

C[C@H](N)[C@H](O)c1cccc(O)c1 [metaraminol]
In vivo DILI ([1]; […]): -VE

C[C@H](CCC(=O)O)C[C@H](C)C[C@H](C)C(=O)/C=C(\O)[C@H](C)C[C@H](C)C/C=C/[C@@H](C)[C@@H](O)[C@@H](C)[C@@H](O)C[C@@H]1CC[C@@](C)([C@H]2CC[C@@](C)([C@@H](C)O)O2)O1 [ionomycin]
In vivo DILI [1, 3]: +VE

[Na+].[OH-] [sodium hydroxide]
In vivo DILI [1, 3]: +VE

C[C@H](CCC(=O)NCCS(=O)(=O)O)[C@H]1CC[C@H]2[C@@H]3CC[C@@H]4C[C@H](O)CC[C@]4(C)[C@H]3C[C@H](O)[C@]12C [taurodeoycholic]
In vivo DILI [1, 3]: +VE

CC(C)[C@@]1(O)[C@@H](OC(=O)c2ccc[nH]2)[C@@]2(O)[C@@]3(C)C[C@]4(O)O[C@@]5([C@H](O)[C@@H](C)CC[C@]35O)[C@@]2(O)[C@@]14C [ryanodine]
In vivo DILI [1, 3]: +VE

ClC=C(Cl)Cl [trichloroethylene]
In vivo DILI [1, 3]: +VE

C=C1[C@@H](C)[C@H]2[C@H](Cc3ccccc3)NC(=O)[C@]23OC(=O)/C=C/[C@H](O)CCC[C@@H](C)C/C=C/[C@H]3[C@@H]1O [cytochalasin b]
In vivo DILI [1, 3]: +VE

C[N+]1(C)[C@@H]2C[C@@H](OC(=O)C(O)(c3cccs3)c3cccs3)C[C@H]1[C@@H]1O[C@@H]12 [tiotropium]
In vivo DILI ([1]; in vivo): -VE

C#C[C@]1(O)CC[C@H]2[C@@H]3CCc4cc(OC)ccc4[C@H]3CC[C@@]21C [mestranol]
In vivo DILI ([1]; […]): -VE

NC(=O)N1c2ccccc2CC(=O)c2ccccc21 [oxcarbazeptin]
In vivo DILI ([1]; ref Schadt 2015): +VE

ClC(Cl)(Cl)Cl [carbon tetrachloride]
In vivo DILI [1, 3]: +VE

COc1ncnc(NS(=O)(=O)c2ccc(N)cc2)c1OC [sulfadoxine]
In vivo DILI ([1]; […]): -VE

CC1(C)O[C@@H]2C[C@H]3[C@@H]4C[C@H](F)C5=CC(=O)C=C[C@]5(C)[C@H]4[C@@H](O)C[C@]3(C)[C@]2(C(=O)CO)O1 [flunisolide]
In vivo DILI ([1]; […]): -VE

CC(=O)Nc1ccc2c(c1)Cc1ccccc1-2 [acetamido uorene]
In vivo DILI [1, 3]: +VE

c1cc[n+]2c(c1)-c1cccc[n+]1CC2 [diquat]
In vivo DILI ([1]; in vivo): +VE

CN(C)N=O [nitrosodimethylamine]
In vivo DILI [1, 3]: +VE

CC1(C)[C@@H](O)CC[C@]2(C)[C@H]3C(=O)C=C4[C@@H]5C[C@@](C)(C(=O)O)CC[C@]5(C)CC[C@@]4(C)[C@]3(C)CC[C@@H]12 [18 beta-glycyrrhetic acid]
In vivo DILI ([1]; in vivo): -VE

c1ccc2c(c1)cc1ccc3cccc4ccc2c1c34 [benzopyrene]
In vivo DILI [1, 3]: +VE

CCNC(=O)[C@@H]1CCCN1C(=O)[C@H](CCCNC(=N)N)NC(=O)[C@H](CC(C)C)NC(=O)[C@@H](CC(C)C)NC(=O)[C@H](Cc1ccc(O)cc1)NC(=O)[C@H](CO)NC(=O)[C@H](Cc1c[nH]c2ccccc12)NC(=O)[C@H](Cc1c[nH]cn1)NC(=O)[C@@H]1CCC(=O)N1 [leuprolide]
In vivo DILI ([1]; in vivo): -VE

C[C@H](CCC(=O)NCCS(=O)(=O)O)[C@H]1CC[C@H]2[C@@H]3CC[C@@H]4C[C@H](O)CC[C@]4(C)[C@H]3CC[C@]12C [taurolithocholic]
In vivo DILI [1, 3]: +VE

C[C@H](CCC(=O)NCCS(=O)(=O)O)[C@H]1CC[C@H]2[C@@H]3[C@H](O)C[C@@H]4C[C@H](O)CC[C@]4(C)[C@H]3C[C@H](O)[C@]12C [taurocholic]
In vivo DILI [1, 3]: +VE

CC1(COc2ccc(CC3SC(=O)NC3=O)cc2)CCCCC1 (centres unmarked) [ciglitizone]
In vivo DILI ([1]; in vivo): -VE

Cl [hydrochloric acid]
In vivo DILI ([1]; in vivo): +VE

CN(C)[C@@H]1C(O)=C(C(N)=O)C(=O)[C@@]2(O)C(O)=C3C(=O)c4c(O)ccc(Cl)c4[C@@](C)(O)[C@H]3C[C@@H]12 [chlortetracycline]
In vivo DILI ([1]; in vivo): +VE

C=C1[C@@H](C)[C@H]2[C@H](Cc3ccccc3)NC(=O)[C@]23[C@H](OC(C)=O)/C=C/[C@@](C)(O)C(=O)[C@@H](C)C/C=C/[C@H]3[C@@H]1O [cytochalasin d]
In vivo DILI [1, 3]: +VE

CCCCC1C(=O)N(c2ccccc2)N(c2ccc(O)cc2)C1=O (centres unmarked) [oxyphenbutazone]
In vivo DILI ([1]; […]): +VE

O=C(O)CC(O)(CC(=O)O)C(=O)O [citrate]
In vivo DILI ([1]; in vivo): -VE

CBr [methyl bromide]
In vivo DILI ([1]; […]): -VE

O=S(=O)([O-])[O-].[Fe+2] [ferrous sulfate]
In vivo DILI ([1]; […]): +VE

CC(N)C(O)c1ccccc1 (centres unmarked) [phenylpropanolamine]
In vivo DILI ([1]; in vivo): -VE

C[C@]12C=CC(=O)C=C1CC[C@H]1[C@@H]3C[C@@H](O)[C@](O)(C(=O)CO)[C@@]3(C)C[C@H](O)[C@@]12F [triamcinolone]
In vivo DILI ([1]; […]): -VE

COc1c(N2C[C@@H]3CCCN[C@@H]3C2)c(F)cc2c(=O)c(C(=O)O)cn(C3CC3)c12 [moxifloxacin]
DILI +VE (5-8), DILI -VE (-4) ([2]; in vivo): +VE
DILI severity category ([2]; in vivo): vLess-DILI-Concern

aprotinin
DILI severity category [2, 4]: Ambiguous DILI-concern
DILI +VE (5-8), DILI -VE (-4) [2, 5]: -VE

CNCC[C@H](Oc1cccc2ccccc12)c1cccs1 [duloxetine]
DILI +VE (5-8), DILI -VE (-4) ([2]; in vivo): +VE
DILI severity category ([2]; in vivo): vMost-DILI-Concern

OCCOCCN1CCN(C2=Nc3ccccc3Sc3ccccc32)CC1 [quetiapine]
DILI +VE (5-8), DILI -VE (-4) ([2]; binary in vivo DILI call given beside the severity category, ref Chen 2016): +VE
DILI severity category ([2]; human DILI concern category (LTKB DILIrank), ref Chen 2016): vLess-DILI-Concern

O=C(O)CCNC(=O)c1ccc(/N=N/c2ccc(O)c(C(=O)O)c2)cc1 [balsalazide]
DILI severity category [2, 4]: Ambiguous DILI-concern
DILI +VE (5-8), DILI -VE (-4) [2, 5]: -VE

interferon alfacon-1
DILI +VE (5-8), DILI -VE (-4) ([2]; in vivo): +VE
DILI severity category ([2]; in vivo): vMost-DILI-Concern

OC[C@@H](O)[C@@H](O)[C@H](O)[C@H](O)CO [mannitol]
DILI +VE (5-8), DILI -VE (-4) [2, 6]: -VE
DILI severity category [2, 7]: vNo-DILI-Concern

Sodium polystyrene sulfonate
DILI +VE (5-8), DILI -VE (-4) ([2]; in vivo): -VE
DILI severity category ([2]; in vivo): vNo-DILI-Concern

protamine sulfate
DILI +VE (5-8), DILI -VE (-4) ([2]; in vivo): -VE
DILI severity category ([2]; in vivo): vNo-DILI-Concern

C[C@@H](O)[C@H]1C(=O)N2C(C(=O)O)=C(S[C@@H]3CN[C@H](C(=O)Nc4cccc(C(=O)O)c4)C3)[C@H](C)[C@H]12 [ertapenem]
DILI +VE (5-8), DILI -VE (-4) [2, 6]: -VE
DILI severity category [2, 7]: Ambiguous DILI-concern

CC(=O)NO [acetohydroxamic acid]
DILI +VE (5-8), DILI -VE (-4) ([2]; in vivo): -VE
DILI severity category ([2]; in vivo): Ambiguous DILI-concern

adalimumab
DILI +VE (5-8), DILI -VE (-4) ([2]; in vivo): +VE
DILI severity category ([2]; in vivo): vLess-DILI-Concern

CCC(=O)O[C@@H](O[P@](=O)(CCCCc1ccccc1)CC(=O)N1C[C@H](C2CCCCC2)C[C@H]1C(=O)O)C(C)C [fosinopril]
DILI +VE (5-8), DILI -VE (-4) [2, 6]: +VE
DILI severity category [2, 7]: vLess-DILI-Concern

N[C@@H](Cc1ccc(N(CCCl)CCCl)cc1)C(=O)O [melphalan]
DILI +VE (5-8), DILI -VE (-4) [2, 6]: +VE
DILI severity category [2, 7]: vLess-DILI-Concern

botulinum toxin type a
DILI +VE (5-8), DILI -VE (-4) ([2]; in vivo): -VE
DILI severity category ([2]; in vivo): vNo-DILI-Concern

CCOC(Nc1ccc(C(=O)O)cc1)C(=O)c1ccc(-c2ccccc2)cc1 (centres unmarked) [xenazoic acid]
DILI severity category [2, 4]: vMost-DILI-Concern
DILI +VE (5-8), DILI -VE (-4) ([2]; binary human DILI assignment, ref Chen 2016): +VE

CCCCCCCCCC(=O)OC1(c2ccc(Cl)cc2)CCN(CCCC(=O)c2ccc(F)cc2)CC1 [haloperidol decanoate]
DILI +VE (5-8), DILI -VE (-4) [2, 6]: -VE
DILI severity category [2, 7]: Ambiguous DILI-concern

CN(C)CCC=C1c2ccccc2COc2ccccc21 [doxepin]
DILI +VE (5-8), DILI -VE (-4) [2, 6]: +VE
DILI severity category [2, 7]: vLess-DILI-Concern
